In brackets after ≈: the same amount, converted by molar mass.
Tests used:
Trypanosoma cruzi [1] = experiment: Antitrypanosomal activity against amastigote stage of Trypanosoma cruzi Tulahuen infected in human U937 cells assessed as parasite growth inhibition at 20 ug/mL after 72 hrs by beta-galactosidase reporter gene assay relative to control; assay type: functional; details: U-937, 72 h, read-out: GI
Leishmania panamensis [2] = experiment: Antileishmanial activity against amastigote stage of Leishmania panamensis MHOM/CO/87/UA140-EpiR-GFP infected in human U937 cells assessed as parasite growth inhibition at 20 ug/mL after 72 hrs by flow cytometric analysis relative to control; assay type: functional; details: MHOM/CO/87/UA140, U-937, 72 h, read-out: GI
[3] = Cytotoxicity against human U937 cells assessed as cell viability after 72 hrs by MTT assay; assay type: cell-based, U-937; details: read-out: LC50
Plasmodium falciparum [4] = experiment: Antimalarial activity against asynchronic culture of Plasmodium falciparum NF54 assessed as parasite growth inhibition at 20 ug/mL after 48 hrs by ethidium bromide staining-based spectrofluorometric analysis relative to control; assay type: functional; details: NF54, 48 h, read-out: GI
Leishmania panamensis [5] = experiment: Antileishmanial activity against amastigote stage of Leishmania panamensis MHOM/CO/87/UA140-EpiR-GFP infected in human U937 cells assessed as parasite growth inhibition after 72 hrs by flow cytometric analysis; assay type: functional, organism-based; details: MHOM/CO/87/UA140, U-937, 72 h
[6] = Hemolytic activity in human RBC after 48 hrs by spectrophotometric analysis; assay type: ADME, cell-based, Erythrocyte; details: human red blood cells (RBC), read-out: LC50
Trypanosoma cruzi [7] = experiment: Antitrypanosomal activity against amastigote stage of Trypanosoma cruzi Tulahuen infected in human U937 cells assessed as parasite growth inhibition at 1 ug/mL after 72 hrs by beta-galactosidase reporter gene assay relative to control; assay type: functional; details: U-937, 72 h, read-out: GI
Leishmania panamensis [8] = experiment: Antileishmanial activity against amastigote stage of Leishmania panamensis MHOM/CO/87/UA140-EpiR-GFP infected in human U937 cells assessed as parasite growth inhibition at 5 ug/mL after 72 hrs by flow cytometric analysis relative to control; assay type: functional; details: MHOM/CO/87/UA140, U-937, 72 h, read-out: GI
Plasmodium falciparum [9] = experiment: Antimalarial activity against asynchronic culture of Plasmodium falciparum NF54 assessed as parasite growth inhibition after 48 hrs by ethidium bromide staining-based spectrofluorometric analysis; assay type: functional, organism-based; details: NF54, 48 h
Trypanosoma cruzi [10] = experiment: Antitrypanosomal activity against amastigote stage of Trypanosoma cruzi Tulahuen infected in human U937 cells assessed as parasite growth inhibition after 72 hrs by beta-galactosidase reporter gene assay; assay type: functional, organism-based; details: U-937, 72 h

Structure (SMILES) | inhibition of growth at 20 µg/mL (Trypanosoma cruzi [1]) | inhibition of growth at 20 µg/mL (Leishmania panamensis [2]) | CC50 at 72 h [3] | inhibition of growth at 20 µg/mL (Plasmodium falciparum [4]) | EC50 (Leishmania panamensis [5]) | HC50 at 48 h [6] | inhibition of growth at 1 µg/mL (Trypanosoma cruzi [7]) | inhibition of growth at 5 µg/mL (Leishmania panamensis [8]) | IC50 (Plasmodium falciparum [9]) | EC50 (Trypanosoma cruzi [10])
COc1cc(/C=C/C(=O)c2ccccc2)ccc1Oc1nc2c(c(=O)n(C)c(=O)n2C)n1C | 0% | 40.4% | 131 µg/mL (≈ 293 µM) | 27.5% |  |  |  |  |  | 
COc1cc(/C=C/C(=O)c2ccc(Cl)cc2)ccc1Oc1nc2c(c(=O)n(C)c(=O)n2C)n1C | 29.5% | 88.3% | 102 µg/mL (≈ 212 µM) | 18.4% | 12.9 µg/mL (≈ 26.8 µM) |  |  |  |  | 
COc1cc(/C=C/C(=O)c2ccc(Br)cc2)ccc1Oc1nc2c(c(=O)n(C)c(=O)n2C)n1C | 0% | 50.8% | 96.5 µg/mL (≈ 184 µM) | 34.3% |  |  |  |  |  | 
COc1cc(/C=C/C(=O)c2ccc(C)cc2)ccc1Oc1nc2c(c(=O)n(C)c(=O)n2C)n1C |  |  | 27.5 µg/mL (≈ 59.7 µM) | 54.3% | 2.6 µg/mL (≈ 5.65 µM) | > 200 µg/mL | 0% | 21.8% | 21.4 µg/mL (≈ 46.5 µM) | 
COc1ccc(C(=O)/C=C/c2ccc(Oc3nc4c(c(=O)n(C)c(=O)n4C)n3C)c(OC)c2)cc1 | 27.5% | 82.6% | > 200 µg/mL | 0% | 14.2 µg/mL (≈ 29.8 µM) |  |  |  |  | 
COc1cc(/C=C/C(=O)c2cc(OC)c(OC)c(OC)c2)ccc1Oc1nc2c(c(=O)n(C)c(=O)n2C)n1C |  |  | 3.2 µg/mL (≈ 5.96 µM) | 6.4% | 2.6 µg/mL (≈ 4.85 µM) |  | 9.7% | 48.8% |  | 5.9 µg/mL (≈ 11 µM)
COc1cc(C2CC(c3ccccc3)=NN2)ccc1Oc1nc2c(c(=O)n(C)c(=O)n2C)n1C (stereo unspecified) |  |  | 19.8 µg/mL (≈ 43 µM) | 85.2% |  | > 200 µg/mL | 0% | 0% | 13.7 µg/mL (≈ 29.8 µM) | 
COc1cc(C2CC(c3ccc(Cl)cc3)=NN2)ccc1Oc1nc2c(c(=O)n(C)c(=O)n2C)n1C (stereo unspecified) | 36.4% | 7.7% | 34.6 µg/mL (≈ 69.9 µM) | 23.9% |  |  |  |  |  | 
COc1cc(C2CC(c3ccc(Br)cc3)=NN2)ccc1Oc1nc2c(c(=O)n(C)c(=O)n2C)n1C (stereo unspecified) | 0% | 60% | > 200 µg/mL | 56.8% | 19.5 µg/mL (≈ 36.2 µM) | > 200 µg/mL |  |  | 20.8 µg/mL (≈ 38.6 µM) | 
COc1cc(C2CC(c3ccc(C)cc3)=NN2)ccc1Oc1nc2c(c(=O)n(C)c(=O)n2C)n1C (stereo unspecified) | 61.9% | 0% | 53.2 µg/mL (≈ 112 µM) | 46.1% |  |  |  |  |  | 19.4 µg/mL (≈ 40.9 µM)
COc1ccc(C2=NNC(c3ccc(Oc4nc5c(c(=O)n(C)c(=O)n5C)n4C)c(OC)c3)C2)cc1 (stereo unspecified) | 25.9% | 0% | > 200 µg/mL | 13.1% |  |  |  |  |  | 
COc1cc(C2CC(c3cc(OC)c(OC)c(OC)c3)=NN2)ccc1Oc1nc2c(c(=O)n(C)c(=O)n2C)n1C (stereo unspecified) | 0% | 73% | > 200 µg/mL | 30.7% | 15.8 µg/mL (≈ 28.7 µM) |  |  |  |  | 
COc1cc(C2CC(c3ccccc3)=NN2C(C)=O)ccc1Oc1nc2c(c(=O)n(C)c(=O)n2C)n1C (stereo unspecified) |  |  | 14.8 µg/mL (≈ 29.5 µM) | 62.5% |  | > 200 µg/mL | 0% | 35.2% | 18.4 µg/mL (≈ 36.6 µM) | 
COc1cc(C2CC(c3ccc(Cl)cc3)=NN2C(C)=O)ccc1Oc1nc2c(c(=O)n(C)c(=O)n2C)n1C (stereo unspecified) | 9.8% | 39.1% | > 200 µg/mL | 22.1% |  |  |  |  |  | 
COc1cc(C2CC(c3ccc(Br)cc3)=NN2C(C)=O)ccc1Oc1nc2c(c(=O)n(C)c(=O)n2C)n1C (stereo unspecified) | 24.3% | 82.8% | 110 µg/mL (≈ 189 µM) | 44.1% | 14.3 µg/mL (≈ 24.6 µM) |  |  |  |  | 
COc1cc(C2CC(c3ccc(C)cc3)=NN2C(C)=O)ccc1Oc1nc2c(c(=O)n(C)c(=O)n2C)n1C (stereo unspecified) | 30.6% | 63.7% | > 200 µg/mL | 35.6% | 18.1 µg/mL (≈ 35 µM) |  |  |  |  | 
COc1ccc(C2=NN(C(C)=O)C(c3ccc(Oc4nc5c(c(=O)n(C)c(=O)n5C)n4C)c(OC)c3)C2)cc1 (stereo unspecified) | 0% | 76.2% | > 200 µg/mL | 11.6% | 14.6 µg/mL (≈ 27.4 µM) |  |  |  |  | 

Structure (SMILES) | inhibition of growth at 20 µg/mL (Trypanosoma cruzi [1]) | inhibition of growth at 20 µg/mL (Leishmania panamensis [2]) | CC50 at 72 h [3] | inhibition of growth at 20 µg/mL (Plasmodium falciparum [4]) | EC50 (Leishmania panamensis [5]) | HC50 at 48 h [6] | inhibition of growth at 1 µg/mL (Trypanosoma cruzi [7]) | inhibition of growth at 5 µg/mL (Leishmania panamensis [8]) | IC50 (Plasmodium falciparum [9]) | EC50 (Trypanosoma cruzi [10])
COc1cc(C2CC(c3cc(OC)c(OC)c(OC)c3)=NN2C(C)=O)ccc1Oc1nc2c(c(=O)n(C)c(=O)n2C)n1C (stereo unspecified) | 15.8% | 87.6% | > 200 µg/mL | 46.3% | 12.6 µg/mL (≈ 21.3 µM) |  |  |  |  | 
COc1cc(C2CC(c3ccccc3)=NN2C=O)ccc1Oc1nc2c(c(=O)n(C)c(=O)n2C)n1C (stereo unspecified) | 0% | 53.1% | > 200 µg/mL | 30.8% |  |  |  |  |  | 
COc1cc(C2CC(c3ccc(Cl)cc3)=NN2C=O)ccc1Oc1nc2c(c(=O)n(C)c(=O)n2C)n1C (stereo unspecified) | 21.1% | 0% | > 200 µg/mL | 23.9% |  |  |  |  |  | 
COc1cc(C2CC(c3ccc(Br)cc3)=NN2C=O)ccc1Oc1nc2c(c(=O)n(C)c(=O)n2C)n1C (stereo unspecified) | 36.9% | 70.4% | > 200 µg/mL | 46.9% | 16.1 µg/mL (≈ 28.4 µM) |  |  |  |  | 
COc1cc(C2CC(c3ccc(C)cc3)=NN2C=O)ccc1Oc1nc2c(c(=O)n(C)c(=O)n2C)n1C (stereo unspecified) | 0% | 0% | > 200 µg/mL | 37.1% |  |  |  |  |  | 
COc1ccc(C2=NN(C=O)C(c3ccc(Oc4nc5c(c(=O)n(C)c(=O)n5C)n4C)c(OC)c3)C2)cc1 (stereo unspecified) | 27% | 48.1% | 38.7 µg/mL (≈ 74.6 µM) | 41.7% |  |  |  |  |  | 
COc1cc(C2CC(c3cc(OC)c(OC)c(OC)c3)=NN2C=O)ccc1Oc1nc2c(c(=O)n(C)c(=O)n2C)n1C (stereo unspecified) | 9.9% | 30.1% | > 200 µg/mL | 29.5% |  |  |  |  |  | 
COc1cc(C2CC(c3ccccc3)=Nc3c(C)nn(-c4ccccc4)c3N2)ccc1Oc1nc2c(c(=O)n(C)c(=O)n2C)n1C (stereo unspecified) | 15.7% | 0% | > 200 µg/mL | 85.9% |  | > 200 µg/mL |  |  | 13.3 µg/mL (≈ 21.6 µM) | 
COc1cc(C2CC(c3ccc(Cl)cc3)=Nc3c(C)nn(-c4ccccc4)c3N2)ccc1Oc1nc2c(c(=O)n(C)c(=O)n2C)n1C (stereo unspecified) | 0% | 0% | > 200 µg/mL | 80.3% |  | > 200 µg/mL |  |  | 14.1 µg/mL (≈ 21.7 µM) | 
COc1cc(C2CC(c3ccc(F)cc3)=Nc3c(C)nn(-c4ccccc4)c3N2)ccc1Oc1nc2c(c(=O)n(C)c(=O)n2C)n1C (stereo unspecified) | 23.5% | 0% | > 200 µg/mL | 91.7% |  | > 200 µg/mL |  |  | 12.5 µg/mL (≈ 19.7 µM) | 
COc1cc(C2CC(c3ccc(C)cc3)=Nc3c(C)nn(-c4ccccc4)c3N2)ccc1Oc1nc2c(c(=O)n(C)c(=O)n2C)n1C (stereo unspecified) | 37.7% | 0% | > 200 µg/mL | 93.5% |  | > 200 µg/mL |  |  | 12.3 µg/mL (≈ 19.5 µM) | 
COc1ccc(C2=Nc3c(C)nn(-c4ccccc4)c3NC(c3ccc(Oc4nc5c(c(=O)n(C)c(=O)n5C)n4C)c(OC)c3)C2)cc1 (stereo unspecified) | 26.9% | 0% | > 200 µg/mL | 84.4% |  | > 200 µg/mL |  |  | 13.1 µg/mL (≈ 20.3 µM) | 
COc1cc(C2CC(c3cc(OC)c(OC)c(OC)c3)=Nc3c(C)nn(-c4ccccc4)c3N2)ccc1Oc1nc2c(c(=O)n(C)c(=O)n2C)n1C (stereo unspecified) | 56.6% | 0% | > 200 µg/mL | 94.2% |  | > 200 µg/mL |  |  | 11.3 µg/mL (≈ 16 µM) | 20.3 µg/mL (≈ 28.7 µM)
C[C@@H]1[C@H](O)[C@@H](C)/C=C/C=C/C=C/C=C/C=C/C=C/C=C/[C@H](O[C@@H]2O[C@H](C)[C@@H](O)[C@H](N)[C@@H]2O)C[C@@H]2O[C@](O)(C[C@@H](O)C[C@@H](O)[C@H](O)CC[C@@H](O)C[C@@H](O)CC(=O)O[C@H]1C)C[C@H](O)[C@H]2C(=O)O [AMPHOTERICIN B] |  | 100% | 36 µg/mL (≈ 39 µM) |  | 0.05 µg/mL (≈ 0.0541 µM) |  |  |  |  | 
O=C(Cn1ccnc1[N+](=O)[O-])NCc1ccccc1 [BENZNIDAZOLE] | 100% |  | 180 µg/mL (≈ 692 µM) |  |  |  |  |  |  | 10.7 µg/mL (≈ 41.1 µM)
CCN(CC)CCCC(C)Nc1ccnc2cc(Cl)ccc12 (stereo unspecified) [CHLOROQUINE] |  |  |  | 58.2% |  |  |  |  |  | 

From ChEMBL document CHEMBL3407332, “An efficient synthesis of new caffeine-based chalcones, pyrazolines and pyrazolo[3,4-b][1,4]diazepines as potential antimalarial, antitrypanosomal and antileishmanial agents” (Eur J Med Chem, 2015)
